Results published in US10159254B2, “Weed control methods” (Syngenta Participations AG, priority 2013, dated 2018).

Tests used:
[1] = test system: SYHT0H2 soybeans; experiment: Greenhouse: water-soluble iron compounds safening mesotrione, maximum injury; conditions: in vivo
Method: An experiment is conducted to look at the safening effect of a variety of water-soluble iron-containing compounds. SYHT0H2 soybean plants are grown in small pots filled with a greenhouse potting mix. […] In all cases, mesotrione was applied at 420 g ai/ha and all treatments contained liquid ammonium sulphate at 2.5% v/v and NIS at 0.25% v/v. The application rates of iron-containing compounds indicated are iron equivalent rates. […] Percent injury levels were assessed 6, 9, and 16 days after treatment. Data presented are maximum injury occurring from any of the treatments at any time during the experiment.

[2] = test system: Velvetleaf (Abutilon theophrasti); experiment: Greenhouse weed control: HPPD inhibitors with or without Sequestrene 138Fe, velvetleaf; assay type: in vivo; conditions: percent velvetleaf control 19 DAT
Method: Effect of Tank Mix Applications of HPPD Inhibitors and Sequestrene® 138Fe on Velvetleaf Control. Percent Control Assessed 19 DAT
(§1) A greenhouse experiment is conducted to determine the effect of chelated iron on weed control in the greenhouse. Velvetleaf (Abutilon theophrasti) and common waterhemp (Amaranthus rudis) plants are grown in 4×4-inch pots filled with a greenhouse potting mix. When the plants reached the 2 to 3 inch height (2 to 3 leaf stage), they are sprayed with a reduced rate of an HPPD inhibitor alone or in a tank mix combination with Sequestrene 138Fe at 140 g/ha (equivalent to 8.4 g iron/hectare) or 280 g/ha (equivalent to 16.8 g iron/hectare). […] Observations on percent control are recorded 12, 19, and 25 days after treatment.

[3] = test system: common waterhemp (Amaranthus rudis); experiment: Greenhouse weed control: HPPD inhibitors with or without Sequestrene 138Fe, common waterhemp; assay type: in vivo; conditions: common waterhemp control 17 DAT
Method: as §1
Effect of Tank Mix Applications of Various HPPD Inhibitors and Sequestrene 138Fe on Common Waterhemp Control. Injury Assessed 17 DAT
An experiment is performed to look at the effect of applying iron chelates on control of Common Waterhemp using HPPD-inhibiting herbicides. Experiment design is analogous to that outlined in Experiment 3 above.

[4] = test system: HPPD-tolerant soybean event SYHT04R; experiment: Glasshouse: post-emergence HPPD herbicide damage with or without Sequestrene 138Fe, 7 DAA; assay type: in vivo; conditions: isoxaflutole, tembotrione
Method: (§2) Safening of Various HPPD-inhibiting Herbicides in HPPD-tolerant Soybean Events SYHT04R and SYHT0H2
(§3) An experiment is performed to determine whether the addition of chelating iron to the spray formulation can mitigate foliar bleaching injury from the HPPD herbicides mesotrione, bicyclopyrone, tembotrione, isoxaflutole, topramezone and pyrasulfatole when applied post-emergence to the HPPD-tolerant soybean events SYHT04R and SYHT0H2.
(§4) Soybean plants are grown in a glasshouse (24° C. day, 18° C. night; 65% relative humidity; 16 hour photoperiod). Two replicates are utilised in respect of SYHT0H2 (growth stage V1-V3) and three replicates are utilised in respect of SYHT04R (growth stage V1 to V3). Spray applications are applied post-emergence at […]. Herbicide damage was assessed 7 DAA (Days After Application).

[5] = test system: HPPD-tolerant soybean event SYHT0H2; experiment: as above; assay type: in vivo; conditions: isoxaflutole, tembotrione
Method: as §2, §3, §4

[6] = test system: SYHT0H2 soybeans; experiment: Greenhouse: tank-mix and sequential Sequestrene 138Fe, HPPD-inhibitor maximum injury; assay type: in vivo, soybean
Method: Effect of Tank-mix and Sequential Application of Sequestrene® 138 on Mesotrione (Applied as Callisto®)—Maximum Injury in SYHT0H2 Soybeans
An experiment is conducted in the greenhouse to determine the effect of chelated iron (Sequestrene 138Fe containing 6% iron) on HPPD-inhibitor injury to SYHT0H2 soybeans. Soybeans are grown in pots filled with a greenhouse potting mix. When the plants reach the V2-V3 stage, they are sprayed with an HPPD-inhibitor herbicide applied alone (Treatment 1), or in tank mixture with Sequestrene 138Fe (Treatment 2), or sequentially with Sequestrene 138Fe applied 1 day before the HPPD inhibitor (Treatment 3). Sequestrene 138Fe is applied at 2240 g/ha (equivalent to 134 g iron/ha). All treatments are applied with liquid ammonium sulfate @ 2.5% v/v and a non-ionic surfactant (NIS) @ 0.25% v/v in 150 L/ha water. Observations on percent injury are recorded 5, 11, or 22 days after treatment. Data presented are maximum injury observed during the trial.

[7] = test system: SYHT0H2 soybeans; experiment: Greenhouse: Sequestrene 138Fe rate series, percent injury from HPPD-inhibitors at 7 DAT; assay type: in vivo, soybean; conditions: mesotrione 420, bicyclopyrone 200, tembotrione 368, topramezone 72 g/ha
Method: Effect of Sequestrene® 138Fe on Percent Injury from Various HPPD-inhibitors on SYHT0H2 Soybeans. Injury Assessed at Seven Days after Treatment (7 DAT)
SYHT0H2 soybeans are grown in 4×4-inch pots filled with a greenhouse potting mix. When the plants reach the V2-V3 growth stage, they are treated with an HPPD inhibitor applied alone or in a tank mixture with Sequestrene 138Fe at various rates ranging from 140 g product/ha (equivalent to 8.4 g iron/ha) to 2240 g product/ha (equivalent to 134 g iron/ha).

[8] = test system: SYHT04R soybeans; experiment: Greenhouse: Sequestrene 138Fe safening of HPPD-inhibitors, injury 6 days after treatment; assay type: in vivo, soybean; conditions: 6 days after treatment (maximum injury), mesotrione 420, bicyclopyrone 200, isoxaflutole 280 g/ha
Method: Effect of Sequestrene® 138Fe on Various HPPD-inhibitors in SYHT04R Soybeans. Maximum Injury Assessed 6 Days after Treatment
A greenhouse experiment is conducted to determine if Sequestrene® 138Fe was effective in safening various other HPPD herbicide-tolerant soybean events, such as SYHT04R.
SYHT04R soybean plants are grown in 4×4-inch pots filled with a greenhouse potting mix. When the plants reached the V2-V3 growth stage, they are sprayed with an HPPD inhibitor alone or in combination with Sequestrene® 138Fe at 1120 g/ha (equivalent to 67.2 g iron/ha). […] Observations on percent injury are recorded at 6 and 20 days after treatment. Data presented is from the 6 days after treatment rating representing the maximum injury observed during the experiment.

[9] = test system: SYHT04R soybean; experiment: Greenhouse: chelated Fe versus chelated Mn, bicyclopyrone maximum injury; assay type: in vivo; conditions: additive none, maximum injury of 5 and 9 days after treatment
Method: Effect of Chelated Fe and Chelated Mn on Safening SYHT04R Soybean from Bicyclopyrone Injury
A greenhouse experiment is conducted to determine if chelating agents containing nutrient elements other than Fe were also effective in safening HPPD herbicide-tolerant soybeans.
SYHT04R soybean plants are grown in 4×4-inch pots filled with a greenhouse potting mix. When the plants reached the V2-V3 growth stage, they are sprayed with an HPPD inhibitor alone or in combination with Sequestrene 138Fe or a solution containing 6% EDTA-chelated Mn. […] Observations on percent injury were recorded 5, and 9 days after treatment. Data presented are maximum injury observed during the experiment.

[10] = Sequestrene 138Fe 0 g/ha, g ai/ha: mesotrione 26, isoxaflutole 26, bicyclopyrone 50, tembotrione 46, pyrasulfatole 22, topramezone 18
[11] = Sequestrene 138Fe 140 g/ha tank mix, mesotrione 26, isoxaflutole 26 g ai/ha
[12] = Sequestrene 138Fe 280 g/ha tank mix, g ai/ha: bicyclopyrone 50, tembotrione 46, pyrasulfatole 22, topramezone 18
[13] = Sequestrene 138Fe 1000 g/ha, g ai/ha: mesotrione 200, bicyclopyrone, pyrasulfatole 100, topramazone 50
[14] = Sequestrene 138Fe 1000 g/ha, g ai/ha: mesotrione 800, bicyclopyrone, pyrasulfatole 400, topramazone 200
[15] = no Sequestrene 138Fe, g ai/ha: mesotrione 200, bicyclopyrone, pyrasulfatole 100, topramazone 50
[16] = no Sequestrene 138Fe, g ai/ha: mesotrione 800, bicyclopyrone, pyrasulfatole 400, topramazone 200
[17] = Sequestrene 138Fe 140 g/ha tank mix
[18] = Sequestrene 138Fe 280 g/ha tank mix
[19] = Sequestrene 138Fe 560 g/ha tank mix
[20] = Sequestrene 138Fe 1120 g/ha tank mix
[21] = Sequestrene 138Fe 2240 g/ha tank mix

Compound: O=S(=O)([O-])[O-].[Fe+2] [Ferrous Sulfate (Fe2SO4), iron (II) sulphate (ferrous sulphate)]
- safening SYHT0H2 soybeans from mesotrione injury [1]: effective

Compound: CS(=O)(=O)c1cc(C(F)(F)F)ccc1C(=O)c1cnoc1C1CC1 [Isoxaflutole, isoxaflutole]
- % Injury [2, 10]: 78%
- % Injury [2, 11]: 82%
- % Injury [3, 10]: 87%
- % Injury [3, 11]: 88%

Compound: Cc1nn(C)c(O)c1C(=O)c1ccc(C(F)(F)F)cc1S(C)(=O)=O [Pyrasulfatole, pyrasulfotole]
- % Injury [2, 10]: 85%
- % Injury [2, 12]: 80%
- % Injury [3, 10]: 98%
- % Injury [3, 12]: 77%
- Herbicide damage SYHT04R [4, 13]: 0
- Herbicide damage SYHT04R [4, 14]: 2
- Herbicide damage SYHT04R [4, 15]: 4
- Herbicide damage SYHT04R [4, 16]: 12
- Herbicide damage SYHT0H2 [5, 13]: 10
- Herbicide damage SYHT0H2 [5, 14]: 18
- Herbicide damage SYHT0H2 [5, 15]: 10
- Herbicide damage SYHT0H2 [5, 16]: 4

Compound: CS(=O)(=O)c1ccc(C(=O)C2C(=O)CCCC2=O)c(Cl)c1COCC(F)(F)F [Tembotrione, tembotrione]
- % Maximum Injury ([6]; in vivo): 31%
- % Injury [2, 10]: 98%
- % Injury [2, 12]: 99%
- % Injury [3, 10]: 99%
- % Injury [3, 12]: 99%

Compound: Cc1c(C(=O)c2cnn(C)c2O)ccc(S(C)(=O)=O)c1C1=NOCC1 [Topramezone, topramezone]
- % Injury ([7]; Sequestrene 138Fe 0 g/ha): 8%
- % Injury [7, 17]: 0%
- % Injury [7, 18]: 0%
- % Injury [7, 19]: 0%
- % Injury [7, 20]: 0%
- % Injury [7, 21]: 0%
- % Injury [2, 10]: 96%
- % Injury [2, 12]: 93%
- % Injury [3, 10]: 100%
- % Injury [3, 12]: 99%
- Herbicide damage SYHT04R [4, 13]: 2
- Herbicide damage SYHT04R [4, 14]: 3
- Herbicide damage SYHT04R [4, 15]: 5
- Herbicide damage SYHT04R [4, 16]: 17
- Herbicide damage SYHT0H2 [5, 13]: 5
- Herbicide damage SYHT0H2 [5, 14]: 0
- Herbicide damage SYHT0H2 [5, 15]: 8
- Herbicide damage SYHT0H2 [5, 16]: 23

Compound: bicyclopyrone
- % Maximum Injury ([6]; Sequestrene 138Fe 2240 g/ha applied 1 day before herbicide (Treatment 3, sequential), mesotrione 420, bicyclopyrone 200, tembotrione 368 g ai/ha): 12%
- % Maximum Injury ([6]; herbicide alone (Treatment 1), mesotrione 420, bicyclopyrone 200, tembotrione 368 g ai/ha, maximum of 5, 11, 22 days after treatment): 25%
- % Maximum Injury ([6]; tank mix with Sequestrene 138Fe 2240 g/ha (Treatment 2, simultaneous), mesotrione 420, bicyclopyrone 200, tembotrione 368 g ai/ha): 3%
- % Injury ([7]; Sequestrene 138Fe 0 g/ha): 23%
- % Injury [7, 17]: 12%
- % Injury [7, 18]: 10%
- % Injury [7, 19]: 1%
- % Injury [7, 20]: 0%
- % Injury [7, 21]: 0%
- % Injury [2, 10]: 100%
- % Injury [2, 12]: 100%
- % Injury [3, 10]: 90%
- % Injury [3, 12]: 96%
- % Injury ([8]; Sequestrene 138Fe 0 g/ha): 29%
- % Injury ([8]; Sequestrene 138Fe 1120 g/ha): 7%
- % Injury [9]: 29%
- Herbicide damage SYHT04R [4, 13]: 5
- Herbicide damage SYHT04R [4, 14]: 30
- Herbicide damage SYHT04R [4, 15]: 15
- Herbicide damage SYHT04R [4, 16]: 42
- Herbicide damage SYHT0H2 [5, 13]: 3
- Herbicide damage SYHT0H2 [5, 14]: 25
- Herbicide damage SYHT0H2 [5, 15]: 13
- Herbicide damage SYHT0H2 [5, 16]: 40

Compound: iron DTPA [Sequestrene 330-Fe]
- safening SYHT0H2 soybeans from mesotrione injury [1]: effective
